Assays:
KRAS G12C = KRAS G12C (Homo sapiens, UniProt P01116, G12C); assay: SOS1-catalyzed KRAS coupled nucleotide exchange assay (Alpha technology); format: biochemical; parameters: His; key: A: KRAS G12C bound and modulated; settings: inhibition of SOS1 mediated KRAS nucleotide exchange
Description: Method I: The inhibition of the SOS1-catalyzed nucleotide exchange activity of KRAS (e.g., KRAS G12C/C118A) was measured using Alpha (Amplified Luminescent Proximity Homogeneous Assay) technology. 20 nM GDP-bound human KRAS (G12C/C118A) protein was incubated with two-fold serially-diluted test compound or DMSO for 5 minutes at ambient temperature in reaction buffer (25 mM HEPES, pH 7.4; 10 mM MgCl2; 0.01% Triton X-100). For all subsequent steps, DTT was added to the reaction buffer at a final concentration of 1 mM. Next, GTP and SOS-1 were added in DTT-reaction buffer at final concentrations of 1.25 mM or 500 nM, respectively, and incubated at RT for 30 minutes. Finally, c-RAF RBD (50 nM final), Alpha glutathione donor beads (PerkinElmer; 20 μg/mL final), and AlphaLISAnickel chelate acceptor beads (PerkinElmer; 20 μg/mL final), all diluted in DTT-reaction buffer, were added. The reaction mixture was incubated at RT for 5 min, and then the plates were read on an EnVision® Multilabel Reader using the AlphaScreen protocol. Luminescence signal was measured at 570 nm following a 180 ms excitation at 680 nm. Signal intensity corresponded with the association of c-RAF RBD with GTP-bound KRAS G12C/C118A and was normalized to DMSO control.
Method II: Inhibition of the SOS1-catalyzed nucleotide exchange activity of KRAS^G12C was measured using Alpha technology (PerkinElmer). 50 nM GDP-bound human KRAS^G12C protein was incubated with serially-diluted compound or DMSO for 2 hrs at RT in RBD-RAS binding buffer (BPSBioscience). 1 mM GTP and 500 nM SOS-1 were added to the reaction mixture and incubated at RT for 30 min. GST-tagged RBD-cRAF was then added to the reaction mixture at a final concentration of 2.5 nM and incubated at RT for 30 min. Finally, Alpha Glutathione acceptor beads and Nickel chelate donor beads (PerkinElmer) were diluted to 1:500 and 1:250, respectively, and added to the reaction mixture. The final reaction was incubated at RT for 30 min. Plates were read on a TECAN SPARK® Multiplate Reader. The luminescence signal was measured at 615 nm following excitation at 680 nm. Signal intensity was normalized to DMSO control.

[1] = test system: phospho-ERK1/2 in MIA PaCa-2 cells (express KRAS G12C); assay: ERK1/2 phosphorylation in MIA PaCa-2 cells; format: cell-based, human; parameters: key: X: KRAS G12C bound and modulated in cells
Description: MIA PaCa-2 cells were cultured in Dulbecco's Modified Eagle's Medium (Wisent) supplemented with 10% FBS, 2.5% horse serum, and 1% penicillin/streptomycin. Cells were seeded in 6-well plates at 500,000 cells/well and incubated at 37° C., 5% CO2 for 16 hours. Cells were treated with the indicated concentrations of compound or DMSO alone and incubated at 37° C., 5% CO2 for 6 or 24 hours. Conditioned media was discarded, and adherent cells were washed with PBS before they were scraped. Cell suspensions were centrifugated at 2,000 RPM for 5 minutes at 4° C. and supernatants were discarded. Cell pellets were resuspended with 1×RIPA buffer (Millipore) and incubated on ice for 15 minutes. Protein lysates were extracted by centrifugating at 20,000 RPM for 20 minutes at 4° C. Proteins were separated and total KRas protein levels were quantified by Simple Western Immunoassay (ProteinSimple) using the 2-40 kDa Separation Module for Jess according to the manufacturer's protocol, using a protein concentration of 0.5 μg/μl and antibodies targeting KRas (clone #4F3, Sigma) and GAPDH (clone #14C10, Cell Signaling) diluted to 1:10 and 1:1600, respectively, where the latter was used as a loading control. A 3:1 ratio of rabbit to mouse HRP-conjugated secondary antibodies was used for detection. KRas protein levels were quantified relative to GAPDH loading levels and subsequently normalized to the DMSO control. Phosphorylated ERK1/2 levels were quantified by Simple Western Immunoassay (ProteinSimple) using the Protein Normalization Assay Module for Jess according to the manufacturer's protocol using a protein concentration of 0.5 μg/μl and an antibody targeting phosphor-ERK1/2 (clone #D13.14.4E, Cell Signalling) diluted to 1:10. Phosphorylated ERK1/2 levels were normalized to the Jess Protein Normalization Reagent loading control and subsequently to the DMSO control.
MIA PaCa-2 cells were cultured in Dulbecco's Modified Eagle's Medium (Wisent) supplemented with 10% FBS, 2.5% horse serum, and 1% penicillin/streptomycin. Cells were seeded in 96-well plates at a density of 25,000 cells/well and incubated at 37° C., 5% CO2 for 24 hours. The next day, cells were starved in cell culture media containing 1% FBS only at 37° C., 5% CO2 for 16 hours. Following starvation, serially-diluted compounds or DMSO alone were added to cells and incubated at 37° C., 5% CO2 for 1 or 3 hours. Prior to cell lysis, 25 ng/ml human epidermal growth factor (hEGF) (Sigma) was added to the cells and incubated at 37° C., 5% CO2 for 10 minutes. Conditioned media was discarded, and adherent cells lysed and basal ERK1/2 phosphorylation levels were measured using the Phospho-ERK (Thr202/Tyr204) Cellular HTRF kit (Perkin Elmer) according to the manufacturer's protocol. The fluorescent signal of the acceptor antibody at a wavelength of 665 nm was normalized to that of the donor antibody at 620 nm. HTRF ratios were plotted and relative IC50 values were obtained using Prism (GraphPad).

Row | KRAS-SOS1 Nucleotide Exchange (KRAS G12C) | Structure (SMILES) | pERK - MIA PaCa-2 - (6 hours, 5 uM) [1]
1 | A | O=S(=O)(NC1CN(c2ncnc3c2CCN(c2cccc4ccccc24)C3)C1)c1c(F)c(F)c(F)c(F)c1F [Compound 20A, 2,3,4,5,6-pentafluoro-N-(1-(7-(naphthalen-1-yl)-5,6,7,8-tetrahydropyrido[3,4-d]pyrimidin-4-yl)azetidin-3-yl)benzenesulfonamide] | X
2 | A | O=S(=O)(NC1CN(c2ncnc3c2CCN(c2cccc4ccccc24)C3)C1)c1c(F)c(F)c(F)c(F)c1C(F)(F)F [Compound 35A, 2,3,4,5-tetrafluoro-N-(1-(7-(naphthalen-1-yl)-5,6,7,8-tetrahydropyrido[3,4-d]pyrimidin-4-yl)azetidin-3-yl)-6-(trifluoromethyl)benzenesulfonamide] | X
3 | A | Cc1cccc(C)c1-c1cc2nccc(N3CCN(c4c(F)c(F)c(F)c(F)c4S(C)(=O)=O)C[C@@H]3C)c2cc1Cl [Compound 44A, (S)-6-chloro-7-(2,6-dimethylphenyl)-4-(2-methyl-4-(2,3,4,5-tetrafluoro-6-(methylsulfonyl)phenyl)piperazin-1-yl)quinoline] | X
4 |  | CS(=O)(=O)c1c(F)c(F)c(F)c(F)c1NC1CN(c2ncnc3cc(-c4ccccc4F)c(Cl)cc23)C1 [Compound 36A, 1-(6-chloro-7-(2-fluorophenyl)quinazolin-4-yl)-N-(2,3,4,5-tetrafluoro-6-(methylsulfonyl)phenyl)azetidin-3-amine] | X
5 |  | C[C@H]1CN(Cc2c(F)c(F)c(F)c(F)c2[S+](C)[O-])CCN1c1ncnc2cc(-c3ccccc3F)c(Cl)cc12 (stereo partly drawn) [Compound 46A, 6-chloro-7-(2-fluorophenyl)-4-((2S)-2-methyl-4-(2,3,4,5-tetrafluoro-6-(methylsulfinyl)benzyl)piperazin-1-yl)quinazoline] | X
6 | A | Cc1ccnc(C(C)C)c1-n1c(=O)nc(NS(=O)(=O)c2c(F)c(F)c(F)c(F)c2OCF)c2cc(F)c(-c3c(O)cccc3F)nc21 (atropisomer, axis not shown) [Compound 10A, 2,3,4,5-tetrafluoro-N-(6-fluoro-7-(2-fluoro-6-hydroxyphenyl)-1-(2-isopropyl-4-methylpyridin-3-yl)-2-oxo-1,2-dihydropyrido[2,3-d]pyrimidin-4-yl)-6-(fluoromethoxy)benzenesulfonamide] | X
7 | A | C[S+]([O-])c1c(F)c(F)c(F)c(F)c1N1CC(Nc2ncnc3cc(-c4ccccc4F)c(Cl)cc23)C1 (racemic) [Compound 48A, 6-chloro-7-(2-fluorophenyl)-N-(1-(2,3,4,5-tetrafluoro-6-(methylsulfinyl)phenyl)azetidin-3-yl)quinazolin-4-amine] | X
8 |  | C[C@H]1CN(c2c(F)c(F)c(F)c(F)c2S(C)(=O)=O)CCN1c1ncnc2cc(-c3ccccc3F)c(Cl)cc12 [Compound 34A, (S)-6-chloro-7-(2-fluorophenyl)-4-(2-methyl-4-(2,3,4,5-tetrafluoro-6-(methylsulfonyl)phenyl)piperazin-1-yl)quinazoline] | X
9 |  | O=S(=O)(c1c(F)c(F)c(F)c(F)c1C(F)(F)F)N1CCN(c2ncnc3c2CCN(c2cccc4ccccc24)C3)CC1 [Compound 33A, 7-(naphthalen-1-yl)-4-(4-((2,3,4,5-tetrafluoro-6-(trifluoromethyl)phenyl)sulfonyl)piperazin-1-yl)-5,6,7,8-tetrahydropyrido[3,4-d]pyrimidine] | X
10 | A | O=S(=O)(c1c(F)c(F)c(F)c(F)c1C(F)(F)F)N1CCN(c2ncnc3c2CCN(c2cc(O)cc4ccccc24)C3)CC1 [Compound 41A, 4-(4-(4-((2,3,4,5-tetrafluoro-6-(trifluoromethyl)phenyl)sulfonyl)piperazin-1-yl)-5,8-dihydropyrido[3,4-d]pyrimidin-7(6H)-yl)naphthalen-2-ol] | X
11 | A | O=S(=O)(c1c(F)c(F)c(F)c(F)c1OC(F)F)N1CCN(c2ncnc3c2CCN(c2cccc4ccccc24)C3)CC1 [Compound 30A, 4-(4-((2-(difluoromethoxy)-3,4,5,6-tetrafluorophenyl)sulfonyl)piperazin-1-yl)-7-(naphthalen-1-yl)-5,6,7,8-tetrahydropyrido[3,4-d]pyrimidine] | 
12 |  | COc1cc(N2CCc3c(ncnc3N3CCN(S(=O)(=O)c4c(F)c(F)c(F)c(F)c4C(F)(F)F)CC3)C2)c2ccccc2c1 [Compound 40A, 7-(3-methoxy-1-naphthyl)-4-[4-[2,3,4,5-tetrakis(fluoranyl)-6-[tris(fluoranyl)methyl]phenyl]sulfonylpiperazin-1-yl]-6,8-dihydro-5H-pyrido[3,4-d]pyrimidine] | X
13 |  | O=S(=O)(c1c(F)c(F)c(F)c(F)c1C(F)(F)F)N1CCN(c2ncnc3c2CCN(c2cccc4cccc(Cl)c24)C3)CC1 [Compound 32A, 7-(8-chloronaphthalen-1-yl)-4-(4-((2,3,4,5-tetrafluoro-6-(trifluoromethyl)phenyl)sulfonyl)piperazin-1-yl)-5,6,7,8-tetrahydropyrido[3,4-d]pyrimidine] | X
